Key:
CPP32 [1] = test: Reconstitution of dATP-dependent activation of CPP32 with S-cytosol (sucrose-prepared HeLa cytosol); format: biochemical, human; settings: S-cytosol 50 μg supplemented with 0.2 μg, 1 mM dATP
Experimental: On day 0, Hela cells were set up at 5×10^5 cells per 100 mm dish in medium A as described hereinbelow. On day 2, cells were harvested, collected by centrifugation (1000 g, 10 min, 4° C.). After washed once with ice-cold PBS, the cell pellet was suspended in 5 volumes of ice-cold buffer A containing 250 mM sucrose. The cells were disrupted by douncing 3 times in a 5 ml Wheaton douncer with a pestle polished with sand paper. After microcentrifugation for 5 min at 4° C., the supernatants were further centrifuged at 10^5×g for 30 min in a table top ultracentrifuge (Beckman Instruments, Fullerton, Calif.). The resulting supernatants were designated as S-cytosol. Aliquots of S-cytosol (50 μg) alone (lanes 1 and 2), or supplemented with 0.2 μg Apaf-2 purified through the Mono S column (lanes 3 and 4), were incubated with aliquots of 3 μl in vitro translated, ^35S-labeled CPP32 in the absence (lanes 1, 3) or presence (lanes 2, 4) of 1 mM dATP at 30° C. for 1 hr in a final reaction volume of 20 μl of buffer A. Samples were subjected to SDS-PAGE and transferred to a nitrocellulose filter which were then exposed to film for 16 hr at room temperature.
Human cytochrome c is encoded by a single copy nuclear gene [Evans and Scarpulla (1988) Proc. Natl. Acad. Sci. USA 85, 9625-9629] which is translated on cytoplasmic ribosomes as apocytochrome c. […]

CPP32 [2] = test: Activation of endogenous CPP32 in HeLa cell S-100 (Western blot; cleavage of 35S-labeled PARP and SREBP-2); format: biochemical, human; settings: 1 mM nucleotide
Experimental: FIGS. 1A-1D illustrate dATP-dependent activation of CPP32 and DNA fragmentation in vitro. Aliquots (10 μl) of HeLa cell S-100 (50 μg) were incubated alone (lane 1), in the presence of 1 mM ATP (lane 2), or in the presence of 1 mM dATP (lane 3) at 30° C. for 1 hr in a final volume of 20 μl of buffer A. FIG. 1A, samples were subjected to SDS-PAGE and transferred to a nitrocellulose filter, probed with a monoclonal anti-CPP32 antibody, and the antigen/antibody complex was visualized by the ECL method. The filter was exposed to Kodak X-OMAT AR X-ray film for 1 min. In FIG. 1B, an aliquot of 10 μl of in vitro translated, ^35S-labeled PARP was added to each reaction. After 5 min, the samples were subjected to SDS-PAGE and transferred to a nitrocellulose filter. The filter was exposed to film for 2 hr at room temperature. In FIG. 1C, a 5 μl aliquot of in vitro translated, ^35S-labeled SREBP-2 was added to each reaction. After incubation at 30° C. for 30 min, the samples were subjected to SDS-PAGE, the gel was dried and exposed to film for 2 hr at room temperature. In FIG. 1D, a 50 μlaliquot of HeLa cell S-100 (250 μg) was incubated with 6 μl Hamster Liver nuclei in the absence (lane 1), or presence of 1 mM ATP (lane 2) or dATP (lane 3) for 2 hr at 37° C. in a final volume of 60 μl of buffer A. DNA was isolated as described in the Examples and size-separated by agarose gel electrophoresis (2% agarose), and the DNA was visualized by ethidium bromide staining.
Activation of CPP32 and DNA fragmentation are two well characterized biochemical markers of apoptosis and its initiation. With the goal of producing an in vitro system that duplicates apoptosis, we prepared 100,000×g cytosolic supernatant (S-100) from suspension cultures of HeLa cells. The activation of CPP32 is the result of cleavage of its 32 kDa precursor into the 20 kDa NH2-terminal fragment and 11 kDa COOH-terminal fragment [Nicholson et al. (1995) supra], thus the activation of CPP32 in the HeLa cell S-100 was monitored by Western blot analysis using a monoclonal antibody against the 20 kDa fragment of CPP32 (FIG. 1A). The enzymatic activity of CPP32 was assayed by measuring the cleavage of two ^35S-labeled substrates, PARP (FIG. 1B) and SREBP-2 (FIG. 1C). DNA fragmentation was assayed by incubating the HeLa cell S-100 with nuclei isolated from hamster liver followed by genomic DNA extraction and analysis by agarose gel electrophoresis. […] The sizes of the cleaved products of PARP and SREBP-2 were the same as observed in cells undergoing apoptosis [Kaufmann et al. (1993) Cancer Res. 53, 3976-3985; Wang et al. (1996) supra]. […]

Molecule	dATP-dependent activation of CPP32 in S-cytosol (CPP32 [1])	cleavage of 35S-labeled PARP by activated extract (CPP32 [2])	cleavage of 35S-labeled SREBP-2 by activated extract (CPP32 [2])	activation of CPP32 in HeLa cell S-100 (CPP32 [2]; 30° C., 1 hr, Western blot)
Apaf-2: 15 kDa factor bound to phosphocellulose column, purified from HeLa S-100, identified as human cytochrome c	incapable of initiating the dATP-dependent activation of CPP32 (lanes 1 and 2) unless purified cytochrome c was added	–	–	–
Nc1ncnc2c1ncn2[C@H]1C[C@H](O)[C@@H](COP(=O)(O)OP(=O)(O)OP(=O)(O)O)O1 [dATP, deoxyadenosine-5-triphosphate]	–	readily cleaved PARP into 85 kDa and 24 kDa fragments	SREBP-2 into 55 kDa and 70 kDa fragments	most of the CPP32 in the HeLa cell S-100 was activated
